From ChEMBL document CHEMBL1147612, “Synthesis, topoisomerase I inhibition and structure-activity relationship study of 2,4,6-trisubstituted pyridine derivatives” (Bioorg Med Chem Lett, 2004)

Legend:
Format in all cases: functional, cell-based
A549 = experiment: Antitumor cytotoxicity was determined against the A-549(human lung carcinoma) cell line; Range: 0.01 to 0.03
HCT-15 = experiment: Antitumor cytotoxicity was determined against the HCT-15 (human colon adenocarcinoma) cell line; Range: 0.01 to 0.03
SK-OV-3 = experiment: Antitumor cytotoxicity was determined against the SK-OV-3 (human ovary adenocarcinoma) cell line; Range: 0.01 to 0.03; settings: SK-OV-3, Female gonad
SK-MEL-2 = experiment: Antitumor cytotoxicity was determined against the SK-MEL-2 (human malignant melanoma) cell line; Range: 0.01 to 0.03

Measured: EC50

c1ccc(-c2cc(-c3ccccn3)nc(-c3ccccn3)c2)nc1
30 nM: all assays above
